Common to all, as to assay: microbe, parasite or virus in culture
For one experiment, the system named is Clostridium difficile. The settings on record: Clostridioides difficile.
For experiment [1], the system named is Fusobacterium necrophorum. The settings on record: read-out: Minimum inhibitory concentration.
The subject of experiment [2] is Peptostreptococcus magnus. The note with it: Finegoldia magna, read-out: Minimum inhibitory concentration.
For experiment [3], the system named is Porphyromonas assacharolyticus. The settings on record: read-out: Minimum inhibitory concentration.
The test system of experiment [4] is Porphyromonas endodontalis. The settings on record: read-out: Minimum inhibitory concentration.
In the next experiment the test system is Prevotella bivia. The note with it: ATCC29303, read-out: Minimum inhibitory concentration.
Experiment [5] deals with Staphylococcus saprophyticus. The note with it: read-out: Minimum inhibitory concentration.
The subject of a further experiment is Enterococcus faecalis. The settings on record: ATCC29212, read-out: Minimum inhibitory concentration.
The subject of the next experiment is Listeria monocytogenes. The settings on record: read-out: Minimum inhibitory concentration.
A further experiment deals with Group G Streptococcus. The note with it: read-out: Minimum inhibitory concentration.
A further experiment concerns Streptococcus mitis. The settings on record: read-out: Minimum inhibitory concentration.

MIC data for one molecule are collected here from patent US20120202756A1, “USE OF PRODRUGS TO AVOID GI MEDIATED ADVERSE EVENTS” (priority 2009, published 2012).

The structures appear in SMILES notation. Values after ≈ are worked out from the molar mass of the structure shown. Read-outs that look alike come from different tables or passages of the source.

Take `CCC[C@@H]1C[C@@H](C(=O)N[C@@H]([C@H]2O[C@H](SC)[C@H](O)[C@@H](O)[C@H]2O)[C@H](C)Cl)N(C)C1` [Clindamycin, clindamycin, reference compound]: the MIC with Clostridium difficile (ATCC700057, read-out: Minimum inhibitory concentration, ATCC 700057) amounted to 8 µg/mL (≈ 18.8 µM); with Clostridium difficile (NCTC13366, read-out: Minimum inhibitory concentration, NCTC 13366 - NAP1/027) it was 4 µg/mL (≈ 9.41 µM); in the experiment with Clostridium difficile (read-out: Minimum inhibitory concentration, antibiotic-susceptible clinical isolate), 8 µg/mL (≈ 18.8 µM); with Clostridium difficile (read-out: Minimum inhibitory concentration, ribotype 002 - clinical isolate), 2 µg/mL (≈ 4.71 µM); in the experiment on Clostridium difficile (read-out: Minimum inhibitory concentration, ribotype 011 - clinical isolate), 4 µg/mL (≈ 9.41 µM); in the experiment on Clostridium difficile (read-out: Minimum inhibitory concentration, ribotype 027 - clinical isolate) it was 4 µg/mL (≈ 9.41 µM). For the same molecule, the MIC in the experiment on Clostridium difficile (read-out: Minimum inhibitory concentration, ribotype 050 - clinical isolate) is 4 µg/mL (≈ 9.41 µM); in the experiment on Clostridium difficile (read-out: Minimum inhibitory concentration, ribotype 176 - clinical isolate) it was 4 µg/mL (≈ 9.41 µM); in [1] it was no more than 0.03 µg/mL; in experiment [2] it was 0.5 µg/mL (≈ 1.18 µM); in experiment [3], no more than 0.03 µg/mL; in experiment [4], no more than 0.03 µg/mL. Also, the MIC with Prevotella bivia is no more than 0.03 µg/mL; in experiment [5], 0.06 µg/mL (≈ 0.141 µM); with Enterococcus faecalis, 8 µg/mL (≈ 18.8 µM); in the experiment on Listeria monocytogenes it was 1 µg/mL (≈ 2.35 µM); with Group G Streptococcus, no more than 0.03 µg/mL; with Streptococcus mitis it was no more than 0.03 µg/mL.
